Earlier results, collected in patent US20240170108A1, “METHOD AND SYSTEM FOR GENE EXPRESSION PREDICTION-BASED SCREENING OF DRUG-LIKE MOLECULES” (Tata Consultancy Services Limited, priority 2022, published 2024).

Tested on: VCAP cell line
Conditions: 10 μM concentration dose, 6 hrs of exposure

O=c1cc(-c2ccc(O)cc2)oc2cc(O[C@@H]3O[C@H](CO)[C@@H](O)[C@H](O)[C@H]3O)cc(O)c12 [Cosmosiin]
Characteristic Direction, APP (Gene ID 351) (gene APP): −0.0047 | Characteristic Direction, ARHGEF12 (Gene ID 23365) (gene ARHGEF12): −0.0376 | Characteristic Direction, ASAH1 (Gene ID 427) (gene ASAH1): −0.0172 | Characteristic Direction, ATF1 (Gene ID 466) (gene ATF1): −0.0167 | Characteristic Direction, BRCA1 (Gene ID 672) (gene BRCA1): −0.0305 | Characteristic Direction, CSNK1A1 (Gene ID 1452) (gene CSNK1A1): −0.0011 | Characteristic Direction, EED (Gene ID 8726) (gene EED): −0.0170 | Characteristic Direction, EGF (Gene ID 1950) (gene EGF): 0.0114 | Characteristic Direction, ETV1 (Gene ID 2115) (gene ETV1): −0.0108 | Characteristic Direction, FOXO3 (Gene ID 2309) (gene FOXO3): −0.0187 | Characteristic Direction, HLA-DMA (Gene ID 3108) (gene HLA-DMA): −0.0178 | Characteristic Direction, IL1B (Gene ID 3553) (gene IL1B): 0.0082 | Characteristic Direction, NFATC4 (Gene ID 4776) (gene NFATC4): −0.0087 | Characteristic Direction, NOS3 (Gene ID 4846) (gene NOS3): 0.0363 | Characteristic Direction, PSMD4 (Gene ID 5710) (gene PSMD4): −0.0161 | Characteristic Direction, PSME1 (Gene ID 5720) (gene PSME1): −0.0142 | Characteristic Direction, RALA (Gene ID 5898) (gene RALA): 0.0206 | Characteristic Direction, RHEB (Gene ID 6009) (gene RHEB): 0.0037 | Characteristic Direction, RHOA (Gene ID 387) (gene RHOA): −0.0166 | Characteristic Direction, SERPINE1 (Gene ID 5054) (gene SERPINE1): −0.0407 | Characteristic Direction, SOX2 (Gene ID 6657) (gene SOX2): 0.0276 | Characteristic Direction, TBP (Gene ID 6908) (gene TBP): −0.0084 | Characteristic Direction, TERT (Gene ID 7015) (gene TERT): 0.0054
